Experiments:
[1] = Km was determined by Cyanylated APH(3')-IIa method
[2] = Kinetic catalyst(Kcat) was determined by Cyanylated APH(3')-IIa method
[3] = Kinetic constant(Kcat) was determined by native APH(3')-IIa method
[4] = Ratio of kinetic catalyst/Km was determined
[5] = Michaelis constant was determined by native APH(3')-IIa method

`NC[C@H]1O[C@H](O[C@H]2[C@H](O)[C@@H](O)[C@H](N)C[C@@H]2N)[C@H](N)[C@@H](O)[C@@H]1O` showed a Km [1] of 7.9 µM, a Ratio [2] of 1.3e+06 M⁻¹ s⁻¹ and a k cat [2] of 9.93 s⁻¹. The k cat [3] was 29 s⁻¹, the Ratio [4] was 2.4e+07 M⁻¹ s⁻¹ and the Km [5] was 1.2 µM.

— ChEMBL document CHEMBL1130703, “The use of neamine as a molecular template: inactivation of bacterial antibiotic resistance enzyme aminoglycoside 3'-phosphotransferase type IIa” (Bioorg Med Chem Lett, 1998)
